The test system of one data set is HCV replicon gt1a_H77. Nature of the data set: Cell-based HCV replicon assay (TaqMan), genotype 1a (H77). Particulars: Hepatitis C virus, 72 h, replicon 1a (H77); replicon RNA by TaqMan, day 3. In short, it runs like this: (§1)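 Replicon cells seeded at 5000 cells/well with compound (10 serial 2-fold dilutions from 250 μM to 1 μM top dose; 0.5% DMSO, 5% FBS) and lysed on day 3. Replicon RNA quantified by multiplex TaqMan RT-PCR (NS5B amplicon, GAPDH control); ΔCT versus concentration fitted to sigmoid dose-response. Chimeras carry patient-isolate NS5A.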
On the technique in general: Replicon systems follow genome replication, usually without infectious particles.

The next data set relates to HCV replicon gt1b_con1. Nature of the data set: Cell-based HCV replicon assay (TaqMan), genotype 1b (Con1). Particulars: Hepatitis C virus, 72 h; replicon 1b (Con1); replicon RNA by TaqMan, day 3. In short, it runs like this:
as §1

The test system of a further data set is HCV replicon gt2a_JFH. Nature of the data set: Cell-based HCV replicon assay (TaqMan), genotype 2a (JFH). The note with it: Hepatitis C virus, 72 h, replicon 2a (JFH); replicon RNA by TaqMan, day 3. The gist of the method:
as §1

Data set [1] concerns HCV chimeric replicon with NS5A of genotype 2b (AB03090). The data set is described as follows: Cell-based HCV replicon assay (TaqMan), chimeric replicon genotype 2b (AB03090). Particulars: Hepatitis C virus, 72 h, read-out: HCV replicon EC50 2b (AB03090), chimeric replicon 2b (AB03090); replicon RNA by TaqMan, day 3. The procedure: Measurement of inhibition by compounds of the present invention was performed using the HCV replicon system. Several different replicons encoding different HCV genotypes or mutations were used. In addition, potency measurements were made using different formats of the replicon assay, including different ways of measurements and different plating formats. See Jan M. Vrolijk et al., A replicons-based bioassay for the measurement of interferons in patients with chronic hepatitis C, 110 J. VIROLOGICAL METHODS 201 (2003); Steven S. Carroll et al., Inhibition of Hepatitis C Virus RNA Replication by 2′-Modified Nucleoside Analogs, 278(14) J. BIOLOGICAL […] 11979 (2003). However, the underlying principles are common to all of these determinations, and are outlined below.
Compounds of the present invention were assayed for cell-based anti-HCV activity using the following protocol. Replicon cells were seeded at 5000 cells/well in 96-well collagen I-coated Nunc plates in the presence of the test compound. Various concentrations of test compound, typically in 10 serial 2-fold dilutions, were added to the assay mixture, with the starting concentration ranging from 250 μM to 1 μM. The final concentration of DMSO was 0.5%, fetal bovine serum was 5%, in the assay media. Cells were harvested on day 3 by the addition of 1× cell lysis buffer (Ambion cat #8721). The replicon RNA level was measured using real time PCR (TaqMan® assay). The amplicon was located in 5B. The PCR primers were: 5B.2F, […] (SEQ. ID NO. 1); 5B.2R, […] (SEQ. ID NO. 2); the probe sequence was FAM-labeled […] (SEQ. ID NO. 3). GAPDH RNA was used as endogenous control and was amplified in the same reaction as NS5B (multiplex PCR) using primers and VIC-labeled probe recommended by the manufacturer (PE Applied Biosystem). The real-time RT-PCR reactions were run on ABI PRISM 7900HT Sequence Detection System using the following program: 48° C. for 30 minutes, 95° C. for 10 minutes, 40 cycles of 95° C. for 15 sec, 60° C. for 1 minute. The ΔCT values (CT5B-CTGAPDH) were plotted against the concentration of test compound and fitted to the sigmoid dose-response model using XLfit4 (MDL). […] Alternatively, to quantitate the absolute amount of replicon RNA, a standard curve was established by including serially diluted T7 transcripts of replicon RNA in the Taqman assay. All TaqMan® reagents were from PE Applied Biosystems. Such an assay procedure was described in detail in e.g. Malcolm et al., Antimicrobial Agents and Chemotherapy 50: 1013-1020 (2006).
Wherein gt1a_H77 was prepared as described in Yi et al., J Virol. 2004, 78(15):7904-15; gt1b_con1 was prepared as described in Lohmann et al., Science 1999, 285(5424):110-3; and gt2a_JFH was prepared as described in Kato et al., Gastroenterology. 2003, 125(6):1808-17. Chimeric replicons contain NS5A from patient isolates of genotypes 1a, 1b, 2b, 3a and 4a as indicated.

Data set [2] has as its system HCV chimeric replicon with NS5A of genotype 3a (NC00982). Nature of the data set: Cell-based HCV replicon assay (TaqMan), chimeric replicon genotype 3a (NC00982). Particulars: Hepatitis C virus, 72 h, read-out: HCV replicon EC50 3a (NC00982), chimeric replicon 3a (NC00982); replicon RNA by TaqMan, day 3. The gist of the method:
as §1

Data set [3] in a line: Pharmacokinetic analysis in dogs. In kind it is in vivo, male beagle dogs. The note with it: Dog, dihydrochloride salt, 2 mpk/PO, 1 mpk/IV. The procedure: Various pharmacokinetic parameters for compound 56 were measured in rats, dogs and monkeys as described below.
Following an overnight fast, male beagle dogs were dosed with the dihydrochloride salt of compound 56 orally at 2 mg/kg as a suspension in 0.4% hydroxylpropyl methylcellulose (HPMC) or intravenously at 1 mg/kg as a solution in 20% hydroxypropyl-β-cyclodextrin (20% HPβCD). For oral dosing, the animals were typically restrained by hand and dosed by oro-gastric intubation. Dogs were fed approximately 4 hours after dosing. Blood samples were collected from the jugular or cephalic vein at 0.25, 0.5, 1, 2, 4, 6, 8, 12, 24, 48, 72 and 96 hrs (PO) and 0.167, 0.25, 0.5, 1, 2, 4, 6, 8, 12, 24, 48, 72 and 96 hrs (IV) post-dosing and centrifuged to generate plasma. The plasma samples were stored at […] until analysis.
Collected plasma samples were analyzed for the presence of compound 56 using LC-MS/MS as described below.
The HPLC/API-MS/MS system for the example data consisted of a HPLC pumping system and a auto sampler with the sample tray refrigeration option connected directly to a triple quadrupole mass spectrometer with an API source. Typical HPLC methods for the example data was based on a fast gradient of two solvents: solvent A consisted of 0.1% formic acid in water, and solvent B consisted of 0.1% formic acid in acetonitrile. A fast linear gradient (start at 90% A for 0.2 min, ramp to 95% B from 0.2 to 0.5 min, hold at 95% B […], then ramp back to 90% A from 1.0 to 1.1 min, then hold at, […] from 1.1 to 1.2 min) was used. The flow rate for the HPLC system was set to 1 mL/min throughout the HPLC gradient; the HPLC column was a Halo C18 column (2.7 micron particle size, 50×2.1 mm). The example compounds were analyzed by positive ion atmospheric pressure chemical ionization tandem mass spectrometry (APCI-MS/MS). As a general procedure, selected reaction monitoring (SRM) methods were developed for each compound prior to analysis of the plasma samples. Normally, the individual SRM transitions were based on a fragmentation from the protonated molecule ([MH].) to a characteristic product ion.
Using the methods described above, the following pharmacokinetic parameters were calculated in rats, dogs and monkeys and the results are summarized in the table below.

For orientation: EC50 means the midpoint of the concentration-response curve.

As to `COC(=O)N[C@H](C(=O)N1CC(F)(F)C[C@H]1c1ncc(-c2ccc(-c3ccc4c(ccc5nc([C@@H]6C[Si](C)(C)CN6C(=O)[C@@H](NC(=O)OC)C(C)C)[nH]c54)c3)cc2)[nH]1)C(C)C` [Compound 56], the EC50 in the data set with HCV replicon gt1a_H77 is 0.016 nM; in the data set on HCV replicon gt1b_con1, 0.003 nM; in the data set on HCV replicon gt2a_JFH it was 0.027 nM; in data set [1], 48 nM; in data set [2], 0.35 nM. Besides, in data set [3], the “Effective Half-Life” value was 18 h. In addition, the “Volume of Distribution” value in data set [3] was 1.3 L/kg. In addition, the “Oral Bioavailability” value in data set [3] (dose-normalized AUC between PO and IV) came to 8.7%. The clearance in data set [3] (male, beagle, plasma, 1 mg/kg, read-out: Systemic Clearance) is 0.8 mL/min/kg.

The record behind these values is patent publication US8609635B2, “Fused tricyclic silyl compounds and methods of use thereof for the treatment of viral diseases” (priority 2010, dated 2013).
